Where “and” joins values, the source holds several entries; their conditions need not be identical. Identical values can stand only once.

This data set concerns Homo sapiens. Kind of data set: Mean pharmacokinetic parameters for Penciclovir following single dose oral or IV administration of […] to healthy adult subjects and patients with different degrees of renal impairment. Format: ADME, organism-based. On the set-up: dose 1000 mg, dose 250 mg, dose 125 mg, dose 500 mg, route oral. Particulars: in vivo, regimen Single dose; for Excretion: tissue Urine.

Where [1] appears, read: iv, dosed compound id 4, dosed compound name PENCICLOVIR, gender male, tissue Plasma.
[2] abbreviates: po, dose 500 mg, dosed compound id 40, dosed compound name FAMCICLOVIR, gender male, tissue Plasma.

Turning to `Nc1nc2c(ncn2CCC(CO)CO)c(=O)[nH]1` [PENCICLOVIR], the Excretion runs as follows: (iv, 5 mg/kg, dosed compound id 4, dosed compound name PENCICLOVIR, gender male, study dosing duration 24 hours) 91%; (po, at 500 mg, dosed compound id 40, dosed compound name FAMCICLOVIR, gender male, study dosing duration 72 hours) 82%. The F (iv, at 400 mg, dosed compound id 4, dosed compound name PENCICLOVIR, gender male, route oral, tissue Plasma) is reported as 77%. Further, the Vd_beta (iv, dose 400 mg, dosed compound id 4, dosed compound name PENCICLOVIR, gender male, tissue Plasma) came to 1.08 L/kg. Also, under setting [1], the CL worked out at 36.6 L/h. The t1/2 runs as follows: under setting [1], 2 h; under setting [2], 2.3 h. Further, the CL_renal reads like this: (po, dose 500 mg, dosed compound id 40, dosed compound name FAMCICLOVIR, gender female, tissue Plasma) 21.8 L/h; under setting [2], 28.5 L/h and 27.7 L/h. For the same molecule, under setting [2], the Tmax (commonly the time at which the peak concentration occurs) came to 0.9 h. The exposure (AUC) (as a rule, concentration integrated over time) by setting is: (po, dosed compound id 40, dosed compound name FAMCICLOVIR, gender female, tissue Plasma) 11100 ng·h/mL; (po, dosed compound id 40, dosed compound name FAMCICLOVIR, gender male, tissue Plasma) 9300 ng·h/mL.
